Reference: US20070027165A1, “Fungicidal mixtures for controlling rice pathogens” (BASF Aktiengesellschaft, priority 2003, published 2007)

Test system: Cochliobolus miyabeanus
Assay: activity against brown spot of rice caused by Cochliobolus miyabeanus, protective application
Assay type: in vivo
Details: individual active compound, rice seedlings, assessed 6 days after inoculation
Procedure: The active compounds, separately or jointly, were prepared as a stock solution with 0.25% by weight of active compound in acetone or DMSO. 1% by weight of the emulsifier Uniperol® EL (wetting agent having emulsifying and dispersing action based on ethoxylated alkylphenols) was added to this solution, and the solution was diluted with water to the desired concentration.
Use example—activity against brown spot of rice caused by Cochliobolus miyabeanus, protective application
Leaves of potted rice seedlings of the cultivar “Tai-Nong 67” were sprayed to runoff point with an aqueous suspension of the concentration of active compound stated below. The next day, the plants were inoculated with an aqueous spore suspension of Cochliobolus miyabeanus. The test plants were then placed in climatized chambers at 22-24° C. and 95-99 % relative atmospheric humidity for six days. The extent of the development of the infection on the leaves was then determined visually.
Evaluation was carried out by determining the percentage of infected plants. These percentages were converted into efficacies.
The efficacy (E) is calculated as follows using Abbot's formula: E=(1−α/β)·100 α corresponds to the fungicidal infection of the treated plants in % and β corresponds to the fungicidal infection of the untreated (control) plants in %
An efficacy of 0 means that the infection level of the treated plants corresponds to that of the untreated control plants; an efficacy of 100 means that the treated plants are not infected.
The expected efficacies of mixtures of active compounds are determined using Colby's formula (R. S. Colby, Weeds, 15, 20-22, 1967) and compared with the observed efficacies.
Colby's formula: E=x+y−x·y/100 • E expected efficacy, expressed in % of the untreated control, when using the mixture of the active compounds A and B at the concentrations a and b • x efficacy, expressed in % of the untreated control, when using the active compound A at the concentration a • y efficacy, expressed in % of the untreated control, when using the active compound B at the concentration b

SMILES | Efficacy in % of the untreated control (1 ppm in the spray liquor) [%] | Efficacy in % of the untreated control (4 ppm in the spray liquor) [%]
CC1CCN(c2c(-c3c(F)cc(F)cc3F)c(Cl)nc3ncnn23)CC1 [I, 5-chloro-7-(4-methylpiperidin-1-yl)-6-(2,4,6-trifluorophenyl)-[1,2,4]triazolo[1,5-a]pyrimidine] | 8 | 
N#Cc1c[nH]cc1-c1cccc(Cl)c1Cl [II (fenpiclonil), 4-(2,3-dichlorophenyl)-1 H-pyrrole-3-carbonitrile] | 0 | 0
CC1CCN(c2c(-c3c(F)cccc3Cl)c(Cl)nc3ncnn23)CC1 [comparative compound A] | 20 | 
C[C@H](Nc1c(-c2c(F)cc(F)cc2F)c(Cl)nc2ncnn12)C(F)(F)F [comparative compound B] | 20 | 
